Reference: patent publication US7687473B2, “5-amino-4-imidazolecarboxamide riboside and its nucleobase as potentiators of antifolate transport and metabolism” (Health Research, Inc., priority 2005, dated 2010)
Read-outs that look alike come from different tables or passages of the source. Values belong to the compound of their own block, whether it stands above or below them.

Assays:
[1] = biological target: T1, reduced folate carrier (RFC) (Homo sapiens, UniProt P41440); assay: Inhibition of initial velocity of [3H]MTX influx by competitors; format: cell-based; conditions: for IC50: IC50, inhibition of initial velocity of [3H]MTX influx
T1 construct: endogenous in cells; host or cells: CCRF-CEM (parental)
T1 sequence (P41440 1-591): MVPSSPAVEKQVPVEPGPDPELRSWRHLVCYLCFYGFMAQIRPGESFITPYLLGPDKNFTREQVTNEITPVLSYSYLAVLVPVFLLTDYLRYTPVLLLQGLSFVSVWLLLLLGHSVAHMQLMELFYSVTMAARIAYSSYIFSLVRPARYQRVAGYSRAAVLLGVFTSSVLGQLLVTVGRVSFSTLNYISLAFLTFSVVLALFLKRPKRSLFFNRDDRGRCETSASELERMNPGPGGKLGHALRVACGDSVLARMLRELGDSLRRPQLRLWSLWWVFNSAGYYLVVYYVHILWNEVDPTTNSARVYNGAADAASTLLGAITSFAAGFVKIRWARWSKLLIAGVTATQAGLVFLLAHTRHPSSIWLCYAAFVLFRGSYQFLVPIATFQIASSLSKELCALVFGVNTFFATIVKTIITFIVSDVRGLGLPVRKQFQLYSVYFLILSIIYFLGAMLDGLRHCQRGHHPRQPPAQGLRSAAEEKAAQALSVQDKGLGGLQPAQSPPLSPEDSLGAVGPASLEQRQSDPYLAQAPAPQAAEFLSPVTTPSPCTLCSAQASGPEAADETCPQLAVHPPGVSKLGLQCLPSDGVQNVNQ
Method: Duplicate samples were removed at 5 min and processed as described above.
Inhibition of the vi of uptake was measured after pre-incubation of CCRF-CEM cells either with TMTX alone (measuring inhibition at the RFC) or with TMTX+Z (measuring inhibition during Z potentiation). […] All studies were carried out in standard transport medium. Inhibitory potency was measured in two series of experiments and AMT was included in each series as an internal control. Values are average±range of two determinations. […] Values are average±range for duplicate determinations.

CCRF-CEM cells [2] = assay: Effect of protein kinase inhibitors on [3H]MTX uptake; format: cell-based, human
Source text: To determine whether protein phosphorylation is involved in the mechanism of Z potentiation, we began studies with a series of protein kinase (PK) inhibitors (PKI).

CCRF-CEM cells [3] = assay: Accumulation of DDATHF polyglutamates in CCRF-CEM cells; format: cell-based, human; conditions: for DDATHF-Glun, N = 1 / DDATHF-Glun, N = 2 / DDATHF-Glun, N = 3 / DDATHF-Glun, N = 4 / DDATHF-Glun, N = 5 / DDATHF-Glun, N = 6 / DDATHF-Glun, Total / DDATHF-Glun, Total N ≧ 3: 4 hr, 1 μM [3H]DDATHF
Method: At the end of the exposure cells were rapidly chilled to 4 degrees C., harvested by centrifugation at 1000×g for 5 min, washed twice with iced 0.9% NaCl by centrifugation in the same manner. One mL of boiling 50 mM Na-phosphate, pH 5.5 was added, the pellet was triturated and the sample boiled for 5 min. The sample was rapidly cooled to 4 degrees C. Debris was removed by centrifugation as above. The supernatant was further clarified by centrifugation through an Amicon MPS-1 filter unit. […] A suitable volume was injected onto a reversed-phase HPLC column (C18) and eluted with a gradient of from 4-14% acetonitrile over about 43 min. One min fractions were collected and, after addition of 10 ml scintillation fluid, were quantitated by liquid scintillation counting. […]

CCRF-CEM cells [4] = assay: [3H]MTX uptake (initial velocity and 30 min accumulation) in CCRF-CEM cells; format: cell-based, human; conditions: 10 μg/ml CHX preincubated 10 min, Z added for last 5 min
Method: Quantitation of folate and antifolate uptake. The method is essentially as follows. Briefly, logarithmically growing (3-5×10^5/ml) CCRF-CEM cells were harvested at room temperature by centrifugation at 1000×g for 5 min. After washing with the appropriate medium, cells were suspended at ≈2×10^7 cells/ml for use in transport studies. […] Anion-free MHS contains 250 mM sucrose and 20 mM HEPES, titrated to pH 7.4 with MgO. […] Uptake was measured as a function of time for 30 min (for rate and extent measurements) or over 5 min (studies requiring initial velocities). […] Uptake was terminated by diluting 100 μL samples into 1 ml of iced 0.9% NaCl. […] The supernatant was aspirated. The cell pellet was washed once with 1 ml iced 0.9% NaCl and centrifuged as above. The washed pellet was solubilized in 1 ml of 0.3% Triton X-100 by incubation for 60 min at 37° C. The solubilized pellet was transferred to a scintillation vial, 10 ml of Liquiscint (National Diagnostics, Atlanta, Ga.) was added and radioactivity was quantitated in a Beckman Model LS6500 liquid scintillation counter. Separate samples at the longest incubation time used in a particular experiment were harvested for HPLC analysis of intracellular contents as above, except that after the second wash the pellets were extracted with 1 ml boiling 0.1 M Na-phosphate, pH 5.5. The extract was clarified by centrifugation and the supernatant was filtered through an MPS-1 filter unit (Amicon) prior to HPLC analysis.

CCRF-CEM = conditions: 10 μg/ml, within 5 min; cited from earlier work
CCRF-CEM cells [5] = assay: cells; format: cell-based, human; conditions: for EC50: Homo sapiens, CCRF-CEM, drug exposure 0-24/120 hr, read-out: EC50
Method: Inhibition of growth of human cell lines in vitro. Inhibition of growth of CCRF-CEM in continuous and intermittent drug exposures was measured. EC50 values were determined from plots of percent control growth versus the logarithm of drug concentration.
[…]; n=2). […]; n=2). Values presented are average±S.D. for n>2 and average±range for n=2. […] […]; EC50 data may therefore underestimate the biological potency.

IC50 ([1]; +TMTX + Z, 10 min pre-incubation with 1 μM TMTX and 0.5 mM Z (Z potentiated influx)): 18.5 ± 1.1 µM | IC50 ([1]; +TMTX, 10 min pre-incubation with 1 μM TMTX alone (inhibition of the RFC)): 18.6 ± 0.6 µM | Plateau in inhibition of [3H]MTX influx ([1]; observed ±Z, data not shown): 60-70%
SMILES: Nc1nc2ncc(CNc3ccc(C(=O)N[C@@H](CCC(=O)O)C(=O)O)cc3)nc2c(=O)[nH]1 [PteGlu, folic acid]

SMILES: O=c1c(O)c(-c2ccc(O)c(O)c2)oc2cc(O)cc(O)c12 [Quercetin, quercetin]
Decrease of 30 min accumulation +TMTX+Z (CCRF-CEM cells [2]; 50 μM): 21% | Decrease of initial influx rate (CCRF-CEM cells [2]; 50 μM): 43% | Decrease of 30 min accumulation +TMTX+Z (CCRF-CEM cells [2]; 100 μM): 38% | Decrease of initial influx rate (CCRF-CEM cells [2]; 100 μM): 55% | Increase of uptake +TMTX at 30 min (CCRF-CEM cells [2]; 50 or 100 μM): 10-12%

SMILES: Nc1nc2c(c(=O)[nH]1)CC(CCc1ccc(C(=O)N[C@@H](CCC(=O)O)C(=O)O)cc1)CN2 (stereo partly shown) [DDATHF, 5,10-dideazatetrahydrofolate]
Effect of Z on DDATHF uptake (CCRF-CEM cells [3]; 30 min incubation): no effect of Z was observed | Increase of total drug accumulation by Z (CCRF-CEM cells [3]; 4 hr incubation with 1 μM [3H]DDATHF): 11% | DDATHF-Glun, N = 1 (CCRF-CEM cells [3]; +Z): 17.5 ± 1.3 pmol/10^7 cells | DDATHF-Glun, N = 2 (CCRF-CEM cells [3]; +Z): 5.9 ± 0.1 pmol/10^7 cells | DDATHF-Glun, N = 3 (CCRF-CEM cells [3]; +Z): 10.1 ± 0.1 pmol/10^7 cells | DDATHF-Glun, N = 4 (CCRF-CEM cells [3]; +Z): 15.2 ± 0.8 pmol/10^7 cells | DDATHF-Glun, N = 5 (CCRF-CEM cells [3]; +Z): 29.8 ± 0.3 pmol/10^7 cells | DDATHF-Glun, N = 6 (CCRF-CEM cells [3]; +Z): 33.0 ± 2.3 pmol/10^7 cells | DDATHF-Glun, Total (CCRF-CEM cells [3]; +Z): 111.3 pmol/10^7 cells | DDATHF-Glun, Total N ≧ 3 (CCRF-CEM cells [3]; +Z): 88.0 pmol/10^7 cells | DDATHF-Glun, N = 1 (CCRF-CEM cells [3]; −Z): 14.8 ± 0.8 pmol/10^7 cells | DDATHF-Glun, N = 2 (CCRF-CEM cells [3]; −Z): 4.9 ± 0.8 pmol/10^7 cells | DDATHF-Glun, N = 3 (CCRF-CEM cells [3]; −Z): 9.2 ± 0.9 pmol/10^7 cells | DDATHF-Glun, N = 4 (CCRF-CEM cells [3]; −Z): 13.3 ± 2.1 pmol/10^7 cells | DDATHF-Glun, N = 5 (CCRF-CEM cells [3]; −Z): 28.1 ± 2.1 pmol/10^7 cells | DDATHF-Glun, N = 6 (CCRF-CEM cells [3]; −Z): 30.5 ± 0.9 pmol/10^7 cells | DDATHF-Glun, Total (CCRF-CEM cells [3]; −Z): 100.8 pmol/10^7 cells | DDATHF-Glun, Total N ≧ 3 (CCRF-CEM cells [3]; −Z): 81.1 pmol/10^7 cells

SMILES: C[C@@H]1C[C@@H]([C@H](O)CC2CC(=O)NC(=O)C2)C(=O)[C@@H](C)C1 [CHX, cycloheximide]
Potentiation of [3H]MTX influx by 0.5 mM Z after protein synthesis inhibition (CCRF-CEM cells [4]): potentiation still occurred | Inhibition of protein synthesis (CCRF-CEM): completely inhibited

SMILES: Nc1nc(N)c2nc(CNc3ccc(C(=O)N[C@@H](CCC(=O)O)C(=O)O)cc3)cnc2n1 [AMT, 4-amino-pteroylglutamic acid]
Increase of growth inhibitory potency (EC50) by Z (CCRF-CEM cells [5]; 0-24 hr pulse of 120 hr, 100 μM Z): ≈ 2 fold | EC50 (CCRF-CEM cells [5]; [Z] 0 μM): 0.0061 ± 0.0013 µM | EC50 (CCRF-CEM cells [5]; [Z] 100 μM): 0.0037 ± 0.0003 µM
